According to patent US20230295130A1, “COMPOUND USEFUL AS CDK7 KINASE INHIBITOR AND USE THEREOF” (TYK MEDICINES, INC., priority 2020, published 2023):

Key:
Assay in all cases: Enzyme activity test, mobility shift assay (Table 1)
Assay type in all cases: biochemical
[1] = biological target: CDK7/Cyclin H/MAT1 kinase (Homo sapiens (Human), UniProt P50613); conditions: 2 mM ATP; pre-incubated 0 and 60 minutes
Protocol: IC50 values of the compounds for CDK7 kinase were detected in Wuxi Biortus Biosciences Co. Ltd.
(§1) The compound powder was dissolved in 100% DMSO to prepare a 10 mM storage solution. The storage solution was further diluted to 0.5 mM as the initial concentration, and continuously diluted 3 times to obtain 10 compound solutions with different concentrations. The compound and enzyme were pre-incubated for 0 minutes and 60 minutes, respectively, using duplicate detection.
(§2) was used as a positive control, and Mobility shift assay method was used to detect CDK kinase (such as CDK7, CDK9, CDK12 and CDK2) activity of the compounds.

CDK2/Cyclin El = CDK2/Cyclin El (Homo sapiens (Human), UniProt P24941); conditions: 2 mM ATP; read-out: CDK2 kinase IC50
Protocol: as §1, §2

CDK9/Cyclin Tl = CDK9/Cyclin Tl (Homo sapiens (Human), UniProt P50750); conditions: 2 mM ATP; read-out: CDK9 kinase IC50
Chain of CDK9/Cyclin Tl (P50750 whole entry): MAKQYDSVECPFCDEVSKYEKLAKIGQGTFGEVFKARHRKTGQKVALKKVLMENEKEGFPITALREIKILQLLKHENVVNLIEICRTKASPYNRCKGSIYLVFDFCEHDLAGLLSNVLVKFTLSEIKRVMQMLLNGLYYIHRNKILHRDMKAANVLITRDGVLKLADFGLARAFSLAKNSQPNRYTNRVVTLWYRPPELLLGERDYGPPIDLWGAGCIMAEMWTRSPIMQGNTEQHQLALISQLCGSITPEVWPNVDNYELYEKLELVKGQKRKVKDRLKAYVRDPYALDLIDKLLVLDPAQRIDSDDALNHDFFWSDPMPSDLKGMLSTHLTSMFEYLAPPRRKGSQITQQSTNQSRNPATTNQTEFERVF
Chain of CDK9/Cyclin Tl (O60563 whole entry partner): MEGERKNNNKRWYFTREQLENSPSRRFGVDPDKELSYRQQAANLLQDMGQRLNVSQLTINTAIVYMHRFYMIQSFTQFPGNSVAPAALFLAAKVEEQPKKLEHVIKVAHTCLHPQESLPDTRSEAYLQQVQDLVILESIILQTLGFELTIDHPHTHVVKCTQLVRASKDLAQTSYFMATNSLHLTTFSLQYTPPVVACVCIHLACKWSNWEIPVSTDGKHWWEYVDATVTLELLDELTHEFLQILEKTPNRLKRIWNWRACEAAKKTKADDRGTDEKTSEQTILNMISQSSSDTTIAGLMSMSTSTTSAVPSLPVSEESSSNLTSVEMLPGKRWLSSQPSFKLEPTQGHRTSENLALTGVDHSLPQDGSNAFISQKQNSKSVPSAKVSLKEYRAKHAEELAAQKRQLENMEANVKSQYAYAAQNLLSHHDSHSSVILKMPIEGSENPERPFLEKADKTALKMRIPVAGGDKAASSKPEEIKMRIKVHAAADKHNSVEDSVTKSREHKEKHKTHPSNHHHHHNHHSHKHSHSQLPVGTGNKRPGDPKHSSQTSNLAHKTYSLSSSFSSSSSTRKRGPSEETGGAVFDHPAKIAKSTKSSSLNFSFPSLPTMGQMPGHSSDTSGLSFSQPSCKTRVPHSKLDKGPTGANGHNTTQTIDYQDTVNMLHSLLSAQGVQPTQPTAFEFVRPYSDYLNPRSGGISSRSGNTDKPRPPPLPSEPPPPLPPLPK
Protocol: as §1, §2

[2] = biological target: CDK12 (aa686-1082)/Cyclin K (Homo sapiens (Human), UniProt Q9NYV4); conditions: 2 mM ATP; read-out: CDK12 kinase IC50
Chain of CDK12 (aa686-1082)/Cyclin K (Q9NYV4 686-1082): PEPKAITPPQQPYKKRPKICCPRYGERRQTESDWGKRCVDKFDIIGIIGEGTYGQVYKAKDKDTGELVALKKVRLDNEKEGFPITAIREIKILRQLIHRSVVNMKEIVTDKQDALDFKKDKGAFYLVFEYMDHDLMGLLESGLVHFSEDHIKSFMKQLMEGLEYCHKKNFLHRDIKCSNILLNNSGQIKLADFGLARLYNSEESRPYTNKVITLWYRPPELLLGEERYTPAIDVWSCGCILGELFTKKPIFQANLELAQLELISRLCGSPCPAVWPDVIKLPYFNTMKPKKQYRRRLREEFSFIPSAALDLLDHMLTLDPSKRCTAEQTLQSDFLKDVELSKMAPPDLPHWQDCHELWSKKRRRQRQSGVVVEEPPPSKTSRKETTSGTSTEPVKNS
Chain of CDK12 (aa686-1082)/Cyclin K (O75909 whole entry partner, the tested form may be a part): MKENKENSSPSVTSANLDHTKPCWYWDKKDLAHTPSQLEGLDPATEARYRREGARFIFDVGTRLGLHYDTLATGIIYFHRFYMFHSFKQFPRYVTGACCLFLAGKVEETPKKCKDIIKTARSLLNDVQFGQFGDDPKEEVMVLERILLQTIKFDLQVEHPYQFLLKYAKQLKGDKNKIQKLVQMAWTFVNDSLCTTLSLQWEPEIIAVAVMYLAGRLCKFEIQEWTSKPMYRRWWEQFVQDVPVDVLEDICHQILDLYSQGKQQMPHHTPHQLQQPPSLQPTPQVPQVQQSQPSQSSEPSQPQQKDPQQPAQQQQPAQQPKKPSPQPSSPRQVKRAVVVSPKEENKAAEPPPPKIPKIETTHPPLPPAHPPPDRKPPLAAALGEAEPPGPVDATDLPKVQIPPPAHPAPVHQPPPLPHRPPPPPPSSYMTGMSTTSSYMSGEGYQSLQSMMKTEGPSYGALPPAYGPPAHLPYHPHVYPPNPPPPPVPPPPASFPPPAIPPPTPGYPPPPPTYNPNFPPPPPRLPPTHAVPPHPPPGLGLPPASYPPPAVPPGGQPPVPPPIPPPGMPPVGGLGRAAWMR
Protocol: as §1, with “detection. Compound Staurosporine having a structural formula of” for “detection.”
as §2

Chain of CDK7/Cyclin H/MAT1 kinase (P50613 whole entry): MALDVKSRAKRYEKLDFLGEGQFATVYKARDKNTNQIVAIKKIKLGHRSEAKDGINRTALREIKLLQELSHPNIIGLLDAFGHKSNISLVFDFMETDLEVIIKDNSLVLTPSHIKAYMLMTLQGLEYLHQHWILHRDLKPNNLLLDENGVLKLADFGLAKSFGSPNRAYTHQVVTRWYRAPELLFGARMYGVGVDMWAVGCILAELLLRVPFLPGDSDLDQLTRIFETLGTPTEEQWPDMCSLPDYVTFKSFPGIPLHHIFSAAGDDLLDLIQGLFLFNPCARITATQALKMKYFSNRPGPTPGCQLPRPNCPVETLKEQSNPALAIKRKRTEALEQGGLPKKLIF
Chain of CDK7/Cyclin H/MAT1 kinase (P51946 whole entry partner): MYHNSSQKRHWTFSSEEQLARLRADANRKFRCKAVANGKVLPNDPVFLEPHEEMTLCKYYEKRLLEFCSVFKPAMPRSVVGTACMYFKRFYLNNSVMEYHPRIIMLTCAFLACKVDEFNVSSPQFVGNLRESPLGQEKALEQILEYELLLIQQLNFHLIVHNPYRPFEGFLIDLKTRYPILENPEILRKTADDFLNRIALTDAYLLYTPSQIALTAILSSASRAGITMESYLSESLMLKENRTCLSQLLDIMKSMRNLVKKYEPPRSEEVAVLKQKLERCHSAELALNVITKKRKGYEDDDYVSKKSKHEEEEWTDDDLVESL
Chain of CDK7/Cyclin H/MAT1 kinase (P51948 whole entry partner): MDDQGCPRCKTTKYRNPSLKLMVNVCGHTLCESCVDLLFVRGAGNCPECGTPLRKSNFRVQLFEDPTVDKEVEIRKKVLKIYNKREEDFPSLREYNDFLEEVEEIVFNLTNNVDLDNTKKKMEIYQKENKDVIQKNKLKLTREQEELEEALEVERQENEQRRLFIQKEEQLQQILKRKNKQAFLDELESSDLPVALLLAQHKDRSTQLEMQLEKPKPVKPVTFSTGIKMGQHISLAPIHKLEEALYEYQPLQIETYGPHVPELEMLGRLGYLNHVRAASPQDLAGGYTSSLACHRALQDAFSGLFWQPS

Compound | IC50 [1] [nM] | IC50 (CDK2/Cyclin El) [nM] | IC50 (CDK9/Cyclin Tl) [nM] | IC50 [2] [nM]
O=C1CCCCN1c1ccc2c(-c3nc(N[C@H]4CCCNC4)ncc3C(F)(F)F)c[nH]c2c1Br [Example T-03] | < 50 | > 500 | > 500 | > 500
O=C1CCCN1c1ccc2c(-c3nc(N[C@H]4CCCNC4)ncc3C(F)(F)F)c[nH]c2c1Br [Example T-04] | < 50 | > 500 | > 500 | > 500
CN1CCC[C@H](Nc2ncc(C(F)(F)F)c(-c3c[nH]c4cc(N5CCCC5=O)ccc34)n2)C1 [Example T-05] | < 50 | > 500 | > 500 | > 500
O=C1OCCCN1c1ccc2c(-c3nc(N[C@H]4CCCNC4)ncc3C(F)(F)F)c[nH]c2c1Br [Example T-06] | < 50 | > 500 | > 500 | > 500
CC1(C)COC(Nc2ccc3c(-c4nc(N[C@H]5CCCNC5)ncc4C(F)(F)F)c[nH]c3c2Br)=N1 [Example T-07] | < 50 | > 500 | > 500 | > 500
O=C(Nc1ccc2c(-c3nc(N[C@H]4CCCNC4)ncc3C(F)(F)F)c[nH]c2c1Br)C1CC1 [Example T-08] | < 50 | > 500 | > 500 | > 500
CC(=O)Nc1ccc2c(-c3nc(N[C@H]4CCCNC4)ncc3C(F)(F)F)c[nH]c2c1Br [Example T-09] | < 50 | > 500 | > 500 | > 500
CC(=O)Nc1ccc2c(-c3nc(N[C@H]4CCCNC4)ncc3C(F)(F)F)c[nH]c2c1 [Example T-10] | < 50 | > 500 | > 500 | > 500
O=C(Nc1ccc2c(-c3nc(N[C@H]4CCCNC4)ncc3C(F)(F)F)c[nH]c2c1)C1CC1 [Example T-11] | < 50 | > 500 | > 500 | > 500
O=C1OCCN1c1ccc2c(-c3nc(N[C@H]4CCCNC4)ncc3C(F)(F)F)c[nH]c2c1Br [Example T-12] | < 50 | > 500 | > 500 | > 500
O=C1CCCN1c1ccc2c(-c3nc(N[C@H]4CCCNC4)ncc3C(F)(F)F)c[nH]c2c1 [Example T-13] | < 50 | > 500 | > 500 | > 500
COC(=O)Nc1ccc2c(-c3nc(N[C@H]4CCCNC4)ncc3C(F)(F)F)c[nH]c2c1P(C)(C)=O [Example T-14] | < 50 | > 500 | > 500 | > 500
CC(=O)Nc1ccc2c(-c3nc(N[C@H]4CCCNC4)ncc3C(F)(F)F)c[nH]c2c1P(C)(C)=O [Example T-15] | < 50 | > 500 | > 500 | > 500
COC(=O)Nc1ccc2c(-c3nc(N[C@H]4CCCNC4)ncc3C(F)(F)F)c[nH]c2c1 [Example T-16] | < 50 | > 500 | > 500 | > 500
O=C1CCN1c1ccc2c(-c3nc(N[C@H]4CCCNC4)ncc3C(F)(F)F)c[nH]c2c1Br [Example T-18] | < 50 | > 500 | > 500 | > 500
COC(=O)Nc1ccc2c(-c3nc(NC4CC5(CNC5)C4)ncc3C(F)(F)F)c[nH]c2c1Br [Example T-19] | < 50 | > 500 | > 500 | > 500
COC(=O)Nc1ccc2c(-c3nc(N[C@H]4CCC[C@H](N)C4)ncc3C(F)(F)F)c[nH]c2c1Br [Example T-20] | 50 to 500 | > 500 | > 500 | > 500
COC(=O)Nc1ccc2c(-c3nc(N[C@H]4CCC[C@@H](N)C4)ncc3C(F)(F)F)c[nH]c2c1Br [Example T-21] | 50 to 500 | > 500 | > 500 | > 500
COC(=O)Nc1ccc2c(-c3nc(N[C@@H]4CCC[C@H](N)C4)ncc3C(F)(F)F)c[nH]c2c1Br [Example T-22] | 50 to 500 | > 500 | > 500 | > 500
COC(=O)Nc1ccc2c(-c3nc(N[C@@H]4CCC[C@@H](N)C4)ncc3C(F)(F)F)c[nH]c2c1Br [Example T-23] | 50 to 500 | > 500 | > 500 | > 500
COC(=O)Nc1ccc2c(-c3nc(N[C@H]4[C@@H]5CNC[C@@H]54)ncc3C(F)(F)F)c[nH]c2c1Br [Example T-24] | < 50 | > 500 | > 500 | > 500
COC(=O)Nc1ccc2c(-c3nc(N[C@@H]4[C@@H]5CNC[C@@H]54)ncc3C(F)(F)F)c[nH]c2c1Br [Example T-25] | 50 to 500 | > 500 | > 500 | > 500
COC(=O)Nc1ccc2c(-c3nc(NC4C5CCNC54)ncc3C(F)(F)F)c[nH]c2c1Br (centres unmarked) [Example T-26] | 50 to 500 | > 500 | > 500 | > 500
COC(=O)Nc1ccc2c(-c3nc(N[C@H]4CCCNC4)ncc3C(F)(F)F)c[nH]c2c1C#N [Example T-27] | < 50 | > 500 | > 500 | > 500
COC(=O)Nc1ccc2c(-c3nc(NC4CC5CNCC5C4)ncc3C(F)(F)F)c[nH]c2c1Br (centres unmarked) [Example T-28] | 50 to 500 | > 500 | > 500 | > 500
COC(=O)Nc1ccc2c(-c3nc(N[C@H]4CCC[C@@H](O)C4)ncc3C(F)(F)F)c[nH]c2c1Br [Example T-29] | > 500 | > 500 | > 500 | > 500
COC(=O)Nc1ccc2c(-c3nc(NC4CC5(CC(N)C5)C4)ncc3C(F)(F)F)c[nH]c2c1Br (centres unmarked) [Example T-31] | < 50 | > 500 | > 500 | > 500
COC(=O)Nc1ccc2c(-c3nc(N[C@H]4CCC(C)(C)NC4)ncc3C(F)(F)F)c[nH]c2c1C(F)(F)F [Example T-35] | < 50 | > 500 | > 500 | > 500

Other lines, results leading:

IC50 [1] [nM] | IC50 (CDK2/Cyclin El) [nM] | IC50 (CDK9/Cyclin Tl) [nM] | IC50 [2] [nM] | Compound
< 50 | > 500 | > 500 | > 500 | CCOC(=O)Nc1ccc2c(-c3nc(N[C@@H]4CNCC(C)(C)C4)ncc3C(F)(F)F)c[nH]c2c1Br [Example T-43]
< 50 | > 500 | > 500 | > 500 | CC(C)OC(=O)Nc1ccc2c(-c3nc(N[C@H]4CCCNC4)ncc3C(F)(F)F)c[nH]c2c1Br [Example T-44]
< 50 | > 500 | > 500 | > 500 | COC(=O)Nc1ccc2c(-c3nc(N[C@H]4CCCNC4)ncc3C(F)(F)F)c[nH]c2c1-c1ccccc1 [Example T-60]
< 50 | > 500 | > 500 | > 500 | COC(=O)Nc1ccc2c(-c3nc(N[C@H]4CCCNC4)ncc3C(F)(F)F)c[nH]c2c1S(=O)(=O)C(C)C [Example T-63]
< 50 | > 500 | > 500 | > 500 | COC(=O)Nc1ccc2c(-c3nc(N[C@H]4CCC(C)(C)NC4)ncc3C(F)(F)F)c[nH]c2c1S(=O)(=O)C(C)C [Example T-64]
< 50 | > 500 | > 500 | > 500 | COC(=O)Nc1ccc2c(-c3nc(N[C@H]4CCCNC4)ncc3C(F)(F)F)c[nH]c2c1[S+]([O-])C(C)C (some centres unmarked) [Example T-65]
< 50 | > 500 | > 500 | > 500 | COC(=O)Nc1ccc2c(-c3nc(N[C@H]4CCCNC4)ncc3C(F)(F)F)c[nH]c2c1SC(C)C [Example T-66]
< 50 | > 500 | > 500 | > 500 | COC(=O)Nc1ccc2c(-c3nc(N[C@H]4CCC[C@@H]4N)ncc3C(F)(F)F)c[nH]c2c1Br [Example T-67]
< 50 | > 500 | > 500 | > 500 | COC(=O)Nc1ccc2c(-c3nc(N[C@H]4CCCNC4)ncc3C(F)(F)F)c[nH]c2c1-c1cnn(C)c1 [Example T-68]
< 50 | > 500 | > 500 | > 500 | COC(=O)Nc1ccc2c(-c3nc(N[C@H]4CCCNC4)ncc3C(F)(F)F)c[nH]c2c1C(C)C [Example T-69]
< 50 | > 500 | > 500 | > 500 | COC(=O)Nc1ccc2c(-c3nc(N[C@H]4CCCNC4)ncc3Br)c[nH]c2c1Br [Example T-75]
< 50 | > 500 | > 500 | > 500 | COC(=O)Nc1ccc2c(-c3nc(N[C@H]4CCC(C)(C)NC4)ncc3C(F)(F)F)c[nH]c2c1Cl [Example T-80]
< 50 | > 500 | > 500 | > 500 | CCOC(=O)Nc1ccc2c(-c3nc(N[C@H]4CCC(C)(C)NC4)ncc3C(F)(F)F)c[nH]c2c1Cl [Example T-82]
